These results are taken from patent US8883841B2, “Oncogenic ras-specific cytotoxic compound and methods of use thereof” (The Board of Regents of the University of Texas System, priority 2005, dated 2014).

Each structure is given as a SMILES string. Where two headings read alike, the source gives them in different places.

The subject of one data set is wild-type MEF. The conditions noted are these: Winter-Vann et al., 2005; cited from earlier work.
The next data set relates to PKCiota. The data set can be described thus: Immunohistochemical staining, subcellular localization of PKCiota. Type of data set: cell-based, human. As to conditions: 12 h; comparators at doses giving similar cell killing. The protocol: Effects on subcellular localization of PKCiota. […] To further investigate molecular mechanisms of Oncrasin action the inventors studied the subcellular localization of several molecules involved in Ras-signaling pathway because the functions of Ras and other proteins are directly related to their subcellular localizations. For this purpose, T29Kt1 or H460 cells were seeded on cover glass slides and treated with DMSO or Oncrasin-1 for 12 h. Cells were then fixed with paraformaldehyde, permeabilized with Triton X-100 and stained with various antibodies for immunohistochemical examination. […] Nevertheless, substantial subcellular localization change was detected for PKCiota after Oncrasin-1 treatment (FIG. 6). In both H460 and T29Kt1 cells, both PKCiota and PKCzeta were diffusely distributed in cells with high concentration on cell membrane in nucleus, consisting with previous reports that aPKC contains both nuclear localization signal (NLS) and nuclear export signal (NES), and can shuttle between cytoplasm and nucleus, which was regulated by intramolecular conformational changes, phosphorylation or by treatment with growth factors (Perander et al., 2001; White et al., 2002; Neri et al., 1999). […] Such aggregation of PKCiota was not observed in Oncrasin-resistant T29 and H1299 cells. The inventors then tested whether PKCiota aggregation in the nucleus can be induced by other chemotherapeutic agents such as 5-fluorouracil (5-FU) and paclitaxol.

In the next data set the test system is SKOV3. Briefly: Cell viability, SKOV3 ovary cancer cells. Format: cell-based. As to conditions: Homo sapiens, SK-OV-3.
In data set [1] the test system is T29 cells. Briefly: cells. The conditions noted are these: Homo sapiens, T29, read-out: IC50 in T29 cells.
A further data set relates to miapac. Briefly: Cell viability, miapac pancreatic cancer cells. Type of data set: cell-based, human. The conditions noted are these: Homo sapiens, Pancreatic cancer cell, read-out: IC50 (−LogM) (converted).
In another data set the test system is CT116P53. Briefly: Cell viability, CT116P53 colon cancer cells. Type of data set: cell-based, human. As to conditions: Homo sapiens, read-out: IC50 (−LogM) (converted).
The next data set has as its system H1395. Briefly: Cell viability, H1395 lung cancer cells. The conditions noted are these: Homo sapiens, NCI-H1395, read-out: IC50 (−LogM) (converted). Type of data set: cell-based, human.
The next data set deals with H1933. Briefly: Cell viability, H1933 lung cancer cells. Type of data set: cell-based, human. As to conditions: Homo sapiens, read-out: IC50 (−LogM) (converted).
A further data set deals with A549 cells. Briefly: Cell viability, A549 lung cancer cells. Type of data set: cell-based, human. As to conditions: Homo sapiens, A549, read-out: IC50 (−LogM), A549, Lung (converted).
The test system of another data set is Ovcar443. Briefly: Cell viability, Ovcar443 ovary cancer cells. Format: cell-based.
The test system of the next data set is Hey. Briefly: Cell viability, Hey ovary cancer cells. Format: cell-based.
The next data set deals with AsPC-1. Briefly: Cell viability, AsPC-1 pancreatic cancer cells. Format: cell-based, human. The conditions noted are these: Homo sapiens, ASPC1, read-out: IC50 (−LogM), ASPC1, Pancrease (converted).
A further data set deals with Hct116. Briefly: Cell viability, Hct116 colon cancer cells. Format: cell-based, human. The conditions noted are these: Homo sapiens, HCT-116, read-out: IC50 (−LogM), Hct116, Colon (converted).
In a further data set the test system is H23. The data set can be described thus: Cell viability, H23 lung cancer cells. Format: cell-based, human. The conditions noted are these: Homo sapiens, NCI-H23, read-out: IC50 (−LogM) (converted).
The next data set relates to DLD1. The data set can be described thus: Cell viability, DLD1 colon cancer cells. Format: cell-based, human. The conditions noted are these: Homo sapiens, DLD-1, read-out: IC50 (−LogM) (converted).
The next data set has as its system H226B cells. The data set can be described thus: Cell viability, H226B lung cancer cells. Type of data set: cell-based, human. As to conditions: Homo sapiens.
For the next data set, the system named is Heb46. The data set can be described thus: Cell viability, Heb46 kidney cells. Type of data set: cell-based.
The next data set deals with Ovca429. Briefly: Cell viability, Ovca429 ovary cancer cells. Type of data set: cell-based.
The next data set concerns Capanc-1. The data set can be described thus: Cell viability, Capanc-1 pancreatic cancer cells. The conditions noted are these: Homo sapiens, Pancreatic cancer cell, read-out: IC50 (−LogM), capanc1, Pancrease (converted). Format: cell-based, human.
For a further data set, the system named is Ovcar3. Briefly: Cell viability, Ovcar3 ovary cancer cells. Type of data set: cell-based. As to conditions: Homo sapiens, OVCAR-3.
The next data set has as its system Heb44. Briefly: Cell viability, Heb44 kidney cells. Type of data set: cell-based.
The subject of another data set is HKE3. Briefly: Cell viability, HKE3 colon cancer cells. The conditions noted are these: Homo sapiens. Type of data set: cell-based, human.
The test system of the next data set is H1299 cells. The data set can be described thus: Cell viability, H1299 lung cancer cells. Format: cell-based, human. The conditions noted are these: Homo sapiens, NCI-H1299, read-out: IC50 (−LogM), h1299, Lung (converted).
In a further data set the test system is H322 cells. The data set can be described thus: Cell viability, H322 lung cancer cells. The conditions noted are these: Homo sapiens, NCI-H322, read-out: IC50 (−LogM) (converted). Type of data set: cell-based, human.
The subject of data set [2] is H460 cells. The data set can be described thus: cells. The conditions noted are these: Homo sapiens.
The subject of a further data set is H2087. Briefly: Cell viability, H2087 lung cancer cells. Format: cell-based, human. The conditions noted are these: Homo sapiens, NCI-H2087, read-out: IC50 (−LogM) (converted).
For another data set, the system named is A549CK8. Briefly: Cell viability, A549CK8 lung cancer cells. Format: cell-based, human. As to conditions: Homo sapiens, read-out: IC50 (−LogM) (converted).
The test system of another data set is H2122. Briefly: Cell viability, H2122 lung cancer cells. Format: cell-based, human. As to conditions: Homo sapiens, NCI-H2122, read-out: IC50 (−LogM) (converted).
The test system of a further data set is H2009. Briefly: Cell viability, H2009 lung cancer cells. The conditions noted are these: Homo sapiens, NCI-H2009, read-out: IC50 (−LogM) (converted). Type of data set: cell-based, human.
Data set [3] deals with T29Kt1 cells. Briefly: cells. The conditions noted are these: Homo sapiens, T29Kt1, read-out: IC50 in T29k cells, Table 1.
The subject of data set [4] is H460 cells. As to conditions: up to 100 μM.
In data set [5] the test system is T29Kt1 cells.
For data set [6], the system named is T29 cells.
Where [7] appears, read: at any of the doses tested (dose response).
[8] abbreviates: up to 100 μM, the highest concentration tested.

As for `CCCCCCCCn1cc(CC(N)=O)c2cc(-c3cccc(C)c3)ccc21` [Cysmethynil, 2-[5-(3-methylphenyl)-1-octyl-1H-indol-3-yl]acetamide], the “growth inhibition in wild-type MEF” value in the data set on wild-type MEF is on record as “induce Icmt-dependent growth inhibition”.
Regarding `O=c1cc(N2CCOCC2)oc2c(-c3ccccc3)cccc12` [LY294003, reference compound], in the data set with PKCiota, the “PKCiota aggregation in the nucleus, T29Kt1 cells” value is given as “did not induce PKCiota aggregation”.
Same read-out and setting: as for `O=c1[nH]cc(F)c(=O)[nH]1` [Oncrasin 5-FLY, 5-fluorouracil, reference compound], the entry is “did not induce PKCiota aggregation”.
The IC50 is the concentration at which inhibition is half-maximal. In the case of `O=Cc1cn(Cc2cccc([N+](=O)[O-])c2)c2ccccc12` [Oncrasin K68, 1-(3-nitrobenzyl)-1H-indole-3-carbaldehyde], the IC50 is 1 µM in the data set on SKOV3; 31.6 µM with T29 cells [1]; under 31.6 µM in the data set with miapac; under 31.6 µM with CT116P53; under 31.6 µM with H1395; 25.1 µM in the data set on H1933. Besides, the half-maximal inhibitory concentration (IC50) in the data set with A549 cells is 5.01 µM; in the data set with Ovcar443 it was 10 µM; in the data set with Hey, under 31.6 µM; with AsPC-1, 2 µM; in the data set with Hct116, 0.158 µM; with H23 it was 31.6 µM. In addition, the IC50 in the data set on DLD1 was under 31.6 µM; in the data set with H226B cells (read-out: IC50 (−LogM), H226B, Lung, first H226B line (converted)), 0.00251 µM; in the data set on H226B cells (read-out: IC50 (−LogM), H226B, Lung, second H226B line (converted)) it was 0.0631 µM; in the data set on Heb46 it was 0.2 µM; in the data set with Ovca429, 31.6 µM; with Capanc-1, 31.6 µM. The IC50 in the data set with Ovcar3 is 0.158 µM; in the data set with Heb44 it was 0.01 µM; in the data set on HKE3 (read-out: IC50 (−LogM), HKE3, Colon, first HKE3 line (converted)), 0.1 µM; in the data set on HKE3 (read-out: IC50 (−LogM), HKE3, Colon, second HKE3 line (converted)), 0.398 µM; with H1299 cells, 10 µM; with H322 cells it was 31.6 µM. Also, the IC50 is 0.0398 µM in the data set on H460 cells [2] (NCI-H460, read-out: IC50 (−LogM), H460, Lung (converted)); 0.0398 µM in the data set on H460 cells [2] (NCI-H460, read-out: IC50 in H460 cells, Table 1); 31.6 µM with H2087; 3.16 µM in the data set on A549CK8; 1 µM in the data set with H2122; 31.6 µM in the data set with H2009. The IC50 in the data set on T29Kt1 cells [3] was 0.501 µM.
Take `OCc1c[nH]c2ccccc12` [indole-3-carbinol, reference compound]: the “toxicity to T29Ht1 (T29H) cells” value with T29Ht1 cells (setting [7]) was “did not induce any cytotoxicity”. Besides, the “cytotoxicity in T29Ht1 cells” value in the data set with T29Ht1 cells (setting [8]) is given as “did not have any cytotoxic effects”. Also, the “cytotoxicity in H460 cells” value in the data set on H460 cells [4] is “did not have any cytotoxic effects”. Also, in the data set on T29Kt1 cells [5] (same dose range as tested for the leader), the “toxicity to T29K cells” value was “did not induce any cytotoxicity”. Besides, in the data set on T29Kt1 cells [5] (up to 100 μM), the “cytotoxicity in T29Kt1 cells” value was “did not have any cytotoxic effects”. Further, in the data set on T29 cells [6] (setting [7]), the “toxicity to T29 cells” value is “did not induce any cytotoxicity”. In addition, the “cytotoxicity in T29 cells” value with T29 cells [6] (setting [8]) is recorded as “did not have any cytotoxic effects”.
Turning to `CC(=O)O[C@H]1C(=O)[C@@]2(C)[C@H]([C@H](OC(=O)c3ccccc3)[C@]3(O)C[C@H](OC(=O)[C@H](O)[C@@H](NC(=O)c4ccccc4)c4ccccc4)C(C)=C1C3(C)C)[C@]1(OC(C)=O)CO[C@@H]1C[C@@H]2O` [taxol, paclitaxol, reference compound], in the data set with PKCiota, the “PKCiota aggregation in the nucleus, T29Kt1 cells” value was “did not induce PKCiota aggregation”.
